{"source": "patent US20060135422A1", "about": "“Use of angiotensin receptor blockers (ARBs) to treat diseases associated with excess ACE” (priority 2003, published 2006)", "key": {"[1]": {"molecular_target": "tACE (Homo sapiens, UniProt P12821)", "sequence (P12821 other isoform, or with tags, fused parts or gaps)": "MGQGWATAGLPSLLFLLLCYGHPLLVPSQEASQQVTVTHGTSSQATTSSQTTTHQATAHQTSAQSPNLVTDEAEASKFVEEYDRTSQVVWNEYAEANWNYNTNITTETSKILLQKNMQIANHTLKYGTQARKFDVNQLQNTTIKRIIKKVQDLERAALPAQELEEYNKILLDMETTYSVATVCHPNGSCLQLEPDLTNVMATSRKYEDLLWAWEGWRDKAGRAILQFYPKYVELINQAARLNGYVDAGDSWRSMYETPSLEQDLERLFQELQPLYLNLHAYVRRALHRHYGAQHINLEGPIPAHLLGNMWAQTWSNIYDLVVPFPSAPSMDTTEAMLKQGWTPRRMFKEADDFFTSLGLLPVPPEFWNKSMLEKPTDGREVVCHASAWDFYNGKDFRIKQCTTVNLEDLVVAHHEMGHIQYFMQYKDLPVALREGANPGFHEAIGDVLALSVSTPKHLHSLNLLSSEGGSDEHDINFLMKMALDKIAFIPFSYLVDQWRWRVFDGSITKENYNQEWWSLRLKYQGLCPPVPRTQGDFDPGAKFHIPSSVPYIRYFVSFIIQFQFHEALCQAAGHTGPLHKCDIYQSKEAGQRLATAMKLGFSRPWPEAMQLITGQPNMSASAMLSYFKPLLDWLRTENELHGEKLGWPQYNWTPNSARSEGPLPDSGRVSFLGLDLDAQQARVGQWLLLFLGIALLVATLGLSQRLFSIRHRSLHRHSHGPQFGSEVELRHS", "details": "cited from earlier work"}, "[2]": {"details": "cited from earlier work"}, "[3]": {"molecular_target": "T1, ACE (Homo sapiens, UniProt P12821)", "T1 sequence (P12821 30-1306)": "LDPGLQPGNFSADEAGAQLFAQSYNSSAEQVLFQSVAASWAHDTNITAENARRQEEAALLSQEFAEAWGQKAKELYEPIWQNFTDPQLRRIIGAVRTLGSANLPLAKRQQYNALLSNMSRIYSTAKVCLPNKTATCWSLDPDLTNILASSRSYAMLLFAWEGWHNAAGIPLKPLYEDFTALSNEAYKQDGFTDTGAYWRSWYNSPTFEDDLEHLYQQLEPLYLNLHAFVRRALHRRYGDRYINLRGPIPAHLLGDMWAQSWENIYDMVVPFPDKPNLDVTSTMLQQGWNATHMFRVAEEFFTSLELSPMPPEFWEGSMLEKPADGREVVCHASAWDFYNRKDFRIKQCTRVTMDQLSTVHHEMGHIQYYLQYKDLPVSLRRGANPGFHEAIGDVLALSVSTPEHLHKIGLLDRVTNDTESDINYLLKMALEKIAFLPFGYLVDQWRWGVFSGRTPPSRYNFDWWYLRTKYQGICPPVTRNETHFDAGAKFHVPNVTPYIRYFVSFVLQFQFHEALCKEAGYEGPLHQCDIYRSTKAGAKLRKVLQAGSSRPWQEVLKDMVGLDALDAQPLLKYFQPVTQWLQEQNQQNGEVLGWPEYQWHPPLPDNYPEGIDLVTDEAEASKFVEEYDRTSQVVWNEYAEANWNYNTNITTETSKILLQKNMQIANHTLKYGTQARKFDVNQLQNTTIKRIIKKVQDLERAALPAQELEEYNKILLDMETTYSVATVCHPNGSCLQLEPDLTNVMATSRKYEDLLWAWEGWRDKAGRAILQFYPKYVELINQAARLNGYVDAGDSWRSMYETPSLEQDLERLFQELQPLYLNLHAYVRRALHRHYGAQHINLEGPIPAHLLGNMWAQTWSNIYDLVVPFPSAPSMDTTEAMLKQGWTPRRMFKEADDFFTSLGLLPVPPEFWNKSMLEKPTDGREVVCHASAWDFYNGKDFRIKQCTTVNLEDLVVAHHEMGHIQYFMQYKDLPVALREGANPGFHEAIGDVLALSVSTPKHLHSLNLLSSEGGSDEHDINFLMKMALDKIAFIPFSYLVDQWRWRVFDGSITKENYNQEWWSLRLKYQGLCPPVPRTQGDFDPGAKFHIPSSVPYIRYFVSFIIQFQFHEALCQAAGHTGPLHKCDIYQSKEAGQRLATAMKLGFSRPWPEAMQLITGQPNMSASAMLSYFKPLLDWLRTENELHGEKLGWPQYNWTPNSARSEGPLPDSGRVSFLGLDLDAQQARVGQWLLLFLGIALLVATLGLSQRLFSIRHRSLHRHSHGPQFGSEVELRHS", "details": "binding affinity, from [27]; cited from earlier work"}, "[4]": {"test_system": "West Nile virus encephalitis", "experiment": "case series: West Nile virus encephalitis treated with angiotensin II receptor blockade", "type": "in vivo, human", "details": "for clinical outcome: patient 8, person with chronic lymphocytic leukemia, intravenous enalapril then losartan 50 mg daily", "experimental": "Table 2. […] A person with past history of tremors was admitted with fever, stiff neck, severe confusion, and gross tremors to a hospital in Omaha, Nebr. one night. Their serum was positive for IgM reactive to West Nile virus. They were begun on olmesartan 20 mg daily. […] They were discharged home on olmesartan 20 mg daily. • 2. A person with hypertension treated with a beta-blocker/thiazide combination drug, was admitted to a hospital in Omaha, Nebr. with right leg paralysis and paresthesias and weakness in their left leg. Their serum was positive for IgM reactive to West Nile virus. They were begun on losartan 50 mg daily. […] A person with a history of seizures was admitted one night to a hospital in Omaha, Nebr. with a fever and a grand mal seizure. They had been taking olmesartan 20 mg daily for mild hypertension. Their serum was positive for IgM reactive to West Nile virus. […] Their usual dose of olmesartan 20 mg daily was resumed thereafter. […] A person was admitted with fever, stiff neck, and severe confusion to a hospital in Omaha, Nebr. Their serum was positive for IgM antibodies reactive to West Nile virus. They were begun on losartan 50 mg daily. […] A person was admitted with fever, stiff neck, and severe confusion to a hospital in Omaha, Nebr. Their serum was positive for IgM antibodies reactive to West Nile virus. They were begun on losartan 50 mg daily. […] A person was admitted with fever, stiff neck, and severe confusion to a hospital in Pueblo, CO. Their serum was positive for IgM antibodies reactive to West Nile virus. They were begun on losartan 50 mg daily. […] A person with chronic lymphocytic leukemia was admitted with fever and obtundation to a hospital in Pueblo, CO. Their serum was positive by EIA for West Nile virus antibodies. […] Head CT and MRI scans were negative."}, "[5]": {"molecular_target": "T1, ACE", "details": "cited from earlier work"}, "[6]": {"molecular_target": "T2, serum ACE (Homo sapiens, UniProt P12821)", "T2 construct": "host or cells: serum", "T2 sequence (P12821 30-1232)": "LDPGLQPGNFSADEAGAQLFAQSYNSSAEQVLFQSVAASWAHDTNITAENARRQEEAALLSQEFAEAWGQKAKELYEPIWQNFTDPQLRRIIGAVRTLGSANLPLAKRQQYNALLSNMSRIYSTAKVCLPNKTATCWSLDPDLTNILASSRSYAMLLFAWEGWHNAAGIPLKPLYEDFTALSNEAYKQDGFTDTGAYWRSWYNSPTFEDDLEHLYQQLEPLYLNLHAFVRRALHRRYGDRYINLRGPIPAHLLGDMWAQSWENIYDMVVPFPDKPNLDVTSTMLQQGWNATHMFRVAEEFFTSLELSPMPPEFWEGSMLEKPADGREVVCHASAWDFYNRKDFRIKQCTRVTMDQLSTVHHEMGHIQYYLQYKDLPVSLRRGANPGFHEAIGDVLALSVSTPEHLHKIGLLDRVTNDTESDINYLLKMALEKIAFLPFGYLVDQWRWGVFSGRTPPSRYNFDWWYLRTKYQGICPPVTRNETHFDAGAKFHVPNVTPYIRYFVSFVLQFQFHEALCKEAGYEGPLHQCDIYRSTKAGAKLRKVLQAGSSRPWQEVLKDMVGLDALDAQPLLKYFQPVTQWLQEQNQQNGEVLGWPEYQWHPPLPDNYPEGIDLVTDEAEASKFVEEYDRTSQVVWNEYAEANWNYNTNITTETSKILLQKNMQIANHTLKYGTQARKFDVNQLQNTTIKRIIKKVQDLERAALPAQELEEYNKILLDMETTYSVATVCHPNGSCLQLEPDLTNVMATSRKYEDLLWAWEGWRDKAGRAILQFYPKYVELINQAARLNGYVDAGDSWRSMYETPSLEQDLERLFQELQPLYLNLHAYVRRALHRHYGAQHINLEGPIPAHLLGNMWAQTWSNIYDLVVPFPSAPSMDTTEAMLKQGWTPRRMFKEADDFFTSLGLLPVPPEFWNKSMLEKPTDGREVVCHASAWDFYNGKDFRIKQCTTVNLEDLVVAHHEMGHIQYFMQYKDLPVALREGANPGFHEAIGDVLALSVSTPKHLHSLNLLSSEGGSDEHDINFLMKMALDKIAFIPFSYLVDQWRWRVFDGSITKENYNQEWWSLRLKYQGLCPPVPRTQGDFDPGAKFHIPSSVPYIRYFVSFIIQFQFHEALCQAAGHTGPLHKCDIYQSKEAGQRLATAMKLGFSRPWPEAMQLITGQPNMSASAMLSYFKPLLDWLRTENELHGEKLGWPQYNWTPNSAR", "details": "cited from earlier work"}, "[7]": {"test_system": "chronic renal failure", "details": "clinical comparison, from [20]; cited from earlier work"}, "[8]": {"test_system": "psoriasis", "type": "in vivo, human", "details": "one person with type II diabetes, quinapril 200 mg/day (2 mg/kg/day); could stop daily methotrexate 75 mg"}, "[9]": {"test_system": "unresectable pancreatic cancer", "experiment": "case report: unresectable pancreatic cancer, quinapril added", "type": "in vivo, human", "details": "person, 5-FU and Naitrexone since February 2002, quinapril (60 mg) since November 2002; median survival of similar patients less than 4 months"}, "[10]": {"test_system": "pulmonary hypertension", "details": "clinical comparison, from [20,22]; cited from earlier work"}, "[11]": {"type": "in vivo, human", "details": "40 mg po qhs; reduced from 98 mm Hg", "experimental": "Because many patients with an autoimmune disease such as alopecia greata, psoriasis, rheumatoid arthritis, multiple sclerosis, etc. are normotensive or even relatively hypotensive, an ACE inhibitor may not be the best choice for them. They might not be able to tolerate a sufficiently high dose of an ACE inhibitor, certainly any dose approaching 2 mg/kg/day. Instead, an AT1 receptor blocker appears to be effective at doses which cause minimal blood pressure (BP) reduction. […]"}, "[12]": {"test_system": "alopecia areata", "experiment": "case reports: alopecia areata treated with an ARB", "type": "in vivo, human"}, "[13]": {"details": "pH 7.4, active moiety, calculated from [23]"}, "[14]": {"details": "pH 7.4, active moiety, calculated from [24]"}, "[15]": {"details": "patient 2, losartan 50 mg daily"}}, "note": "“Also recorded” adds a separate entry of the source. Like-named read-outs stand apart in the source and are kept apart here."}
{"smiles": "O[C@H](CS)[C@H](O)CS", "note": "(racemic) [dithiothreitol]", "values": [{"measurement": "inhibition of tACE's activity", "setting": "[1]", "result": 78, "unit": "%"}]}
{"smiles": "O=C(O)CN1C(=O)[C@@H](N[C@@H](CCc2ccccc2)C(=O)O)CCc2ccccc21", "note": "[Benazeprilat]", "values": [{"measurement": "P(octanol:water)", "setting": "[2]; [13]", "result": 3.0}]}
{"smiles": "C[C@H](CS)C(=O)N1CCC[C@H]1C(=O)O", "note": "[Captopril]", "values": [{"measurement": "P(octanol:water)", "setting": "[2]; [13]", "result": 0.01}, {"measurement": "P(octanol:water)", "setting": "[2]; [14]", "result": 0.004}]}
{"smiles": "NCCCC[C@H](OP(=O)(O)CCCCc1ccccc1)C(=O)N1CCC[C@H]1C(=O)O", "note": "[Ceronapril]", "values": [{"measurement": "P(octanol:water)", "setting": "[2]; [14]", "result": "<0.001"}]}
{"smiles": "O=C(O)[C@H](CCc1ccccc1)N[C@H]1CCCN2CCC[C@@H](C(=O)O)N2C1=O", "note": "[Cilazaprilat]", "values": [{"measurement": "P(octanol:water)", "setting": "[2]; [13]", "result": 1.7}]}
{"smiles": "O=C(O)[C@@H]1C[C@@H](C2CCCCC2)CN1C(=O)CP(=O)(O)CCCCc1ccccc1", "note": "[Fosinoprilat]", "values": [{"measurement": "P(octanol:water)", "setting": "[2]; [14]", "result": 0.33}]}
{"smiles": "CCC[C@H](N[C@@H](C)C(=O)N1[C@H](C(=O)O)C[C@@H]2CCCC[C@@H]21)C(=O)O", "note": "[Perindoprilat]", "values": [{"measurement": "P(octanol:water)", "setting": "[2]; [13]", "result": 0.44}]}
{"smiles": "C[C@H](N[C@@H](CCc1ccccc1)C(=O)O)C(=O)N1Cc2ccccc2C[C@H]1C(=O)O", "note": "[Quinaprilat]", "values": [{"measurement": "P(octanol:water)", "setting": "[2]; pH 7.4", "result": 6.6}]}
{"smiles": "C[C@H](N[C@@H](CCc1ccccc1)C(=O)O)C(=O)N1[C@H](C(=O)O)C[C@@H]2CCC[C@@H]21", "note": "[Ramiprilat]", "values": [{"measurement": "IC50", "setting": "[3]", "result": 0.67, "unit": "nM"}, {"measurement": "P(octanol:water)", "setting": "[2]; [13]", "result": 2.6}, {"measurement": "P(octanol:water)", "setting": "[2]; [14]", "result": 0.011}]}
{"smiles": "C[C@H](N[C@@H](CCc1ccccc1)C(=O)O)C(=O)N1[C@H](C(=O)O)C[C@H]2CCCC[C@@H]21", "note": "[Trandolaprilat]", "values": [{"measurement": "P(octanol:water)", "setting": "[2]; [13]", "result": 10.47}]}
{"smiles": "C[C@H](CS)C(=O)N1C[C@@H](Sc2ccccc2)C[C@H]1C(=O)O", "note": "[Zofenoprilat]", "values": [{"measurement": "P(octanol:water)", "setting": "[2]; [14]", "result": 0.22}]}
{"smiles": "CCOC(=O)[C@H](CCc1ccccc1)N[C@@H](C)C(=O)N1CCC[C@H]1C(=O)O", "note": "[enalapril]", "values": [{"measurement": "clinical outcome", "setting": "[4]", "result": "remained in coma"}, {"measurement": "off time", "setting": "[5]", "result": 4, "unit": "h"}, {"measurement": "inhibition of serum ACE activity", "setting": "[6]", "result": "about 50%"}]}
{"smiles": "CCCCc1nc(Cl)c(CO)n1Cc1ccc(-c2ccccc2-c2nn[nH]n2)cc1", "note": "[losartan]", "values": [{"measurement": "right leg paralysis", "setting": "[4]; [15]", "result": "no change"}, {"measurement": "time until paresthesias and weakness in left leg stopped", "setting": "[4]; [15]", "result": "1 to 2", "unit": "days"}, {"measurement": "time to full recovery", "setting": "[4]; patient 3, losartan 50 mg twice in first 24 hr, usual olmesartan 20 mg daily resumed thereafter", "result": "≤ 12", "unit": "h"}, {"measurement": "time until meningoencephalitis disappeared", "setting": "[4]; patient 4, losartan 50 mg daily", "result": "≤ 48", "unit": "h"}, {"measurement": "time until meningoencephalitis disappeared", "setting": "[4]; patient 5, losartan 50 mg daily", "result": "≤ 48", "unit": "h"}, {"measurement": "time until meningoencephalitis disappeared", "setting": "[4]; patient 6, losartan 50 mg daily", "result": "≤ 24", "unit": "h"}, {"measurement": "time until disappearance of residual weakness and fatigue", "setting": "[4]; patient 7, one month after meningoencephalitis, losartan 50 mg daily", "result": "≤ 24", "unit": "h"}, {"measurement": "clinical outcome", "setting": "[4]", "result": "remained in coma"}]}
{"smiles": "CCOC(=O)[C@H](CCc1ccccc1)N[C@@H](C)C(=O)N1Cc2ccccc2C[C@H]1C(=O)O", "note": "[quinapril]", "values": [{"measurement": "off time", "setting": "[5]", "result": 24, "unit": "h"}, {"measurement": "effectiveness at delaying the progression of chronic renal failure", "setting": "[7]", "result": "more effective than ramipril"}, {"measurement": "response of psoriasis", "setting": "[8]", "result": "put the patient's psoriasis into remission; also recorded: responded dramatically"}, {"measurement": "survival", "setting": "[9]", "result": "still alive in November, 2003"}]}
{"smiles": "CCOC(=O)[C@H](CCc1ccccc1)N[C@@H](C)C(=O)N1[C@H](C(=O)O)C[C@@H]2CCC[C@@H]21", "note": "[ramipril]", "values": [{"measurement": "off time", "setting": "[5]; from [28-30]", "result": 24, "unit": "h"}, {"measurement": "effectiveness at lowering pulmonary hypertension", "setting": "[10]", "result": "more effective at lowering pulmonary hypertension than enlapril"}, {"measurement": "inhibition of serum ACE activity", "setting": "[6]; from [20]", "result": "~100", "unit": "%"}]}
{"smiles": "CCCCC(=O)N(Cc1ccc(-c2ccccc2-c2nnn[nH]2)cc1)[C@H](C(=O)O)C(C)C", "note": "[valsartan]", "values": [{"measurement": "systolic BP on treatment", "setting": "[11]", "result": 90, "unit": "mm Hg"}, {"measurement": "time until scalp hair loss resumed after stopping the ARB", "setting": "[12]; ARB stopped after 1 week, same patient", "result": "3 to 4", "unit": "days"}, {"measurement": "time until hair loss stopped after starting the ARB", "setting": "[12]; active alopecia areata, child, 40 mg po qhs, n=1", "result": "≤ 36", "unit": "h"}, {"measurement": "time for valsartan to have an effect", "setting": "[12]; more chronic form of alopecia areata, n=1", "result": "more than 5 days"}]}
